The experiment deals with T1, SARM1 (50-724) (Homo sapiens, UniProt Q6SZW1).
T1 construct: Purified SARM1 (50-724) with a final concentration of 2 nM
T1 sequence (Q6SZW1 50-724): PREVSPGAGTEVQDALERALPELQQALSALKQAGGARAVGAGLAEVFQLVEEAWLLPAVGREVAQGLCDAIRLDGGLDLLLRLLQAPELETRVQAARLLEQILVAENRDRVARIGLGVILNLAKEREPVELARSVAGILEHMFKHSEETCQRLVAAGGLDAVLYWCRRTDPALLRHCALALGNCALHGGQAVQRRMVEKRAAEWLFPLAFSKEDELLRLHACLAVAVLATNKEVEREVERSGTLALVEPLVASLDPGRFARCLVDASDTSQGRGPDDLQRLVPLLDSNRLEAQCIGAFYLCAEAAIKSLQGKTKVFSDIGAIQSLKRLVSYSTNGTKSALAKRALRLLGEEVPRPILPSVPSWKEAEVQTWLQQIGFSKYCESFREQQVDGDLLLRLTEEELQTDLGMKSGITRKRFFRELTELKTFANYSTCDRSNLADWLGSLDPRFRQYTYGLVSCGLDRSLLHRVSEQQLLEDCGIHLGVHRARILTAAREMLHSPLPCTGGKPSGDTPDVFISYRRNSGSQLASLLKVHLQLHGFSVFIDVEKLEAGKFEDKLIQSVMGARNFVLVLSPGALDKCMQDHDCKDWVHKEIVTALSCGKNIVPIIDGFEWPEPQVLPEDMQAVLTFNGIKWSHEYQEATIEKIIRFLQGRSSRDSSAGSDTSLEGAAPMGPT
Description: SARM1 (50-724) enzymatic assay (NMN-activated NAD+ hydrolysis, LC-MS/MS readout). Type of experiment: biochemical. The following applies: purified SARM1 (50-724) 2 nM, 200 μM NMN activator, 100 μM NAD+ substrate, 1 h at room temperature, read-out: IC50 (SARM1 inhibitory activity). Here is the method:
Example II. SARM1 (50-724) Enzymatic Assay
An enzymatic assay was performed in a 384-well plate using Dulbecco's phosphate-buffered saline (PBS) as the reaction buffer. Purified SARM1 (50-724) with a final concentration of 2 nM was pre-incubated with a test compound at 1% DMSO final assay concentration for 15 min at room temperature. The reaction was initiated by adding a mixture of 200 μM nicotinamide mononucleotide (NMN) as activator and 100 μM NAD^+ as substrate. After 1 h of incubation at room temperature, the reaction was terminated with 10 times volume of 70% acetonitrile, then centrifuged at 3800 rpm for 10 min. The samples were analyzed using LC-MS/MS after diluted to a proper concentration by 10 mM ammonium acetate (pH 9.75).
ND means “not determined.”
For `O=C(c1nc2cc(C(F)(F)F)ccc2[nH]1)N(CCO)[C@@H]1CCCC[C@H]1OC(F)(F)F` (racemic) [Compound 60, N-(2-hydroxyethyl)-N-((1R,2R)-2-(trifluoromethoxy)cyclohexyl)-5-(trifluoromethyl)-1H-benzo[d]imidazole-2-carboxamide], the IC50 lay in the range of 101 to 500 nM. Take `O=C(c1nc2cc(C(F)(F)F)ccc2[nH]1)N(CC(O)CO)c1cccc(Cl)c1Cl` (racemic) [Compound 131, N-(2,3-dichlorophenyl)-N-(2,3-dihydroxypropyl)-5-(trifluoromethyl)-1H-benzo[d]imidazole-2-carboxamide]: the IC50 is not above 100 nM. Under `O=C(c1nc2cc(C(O)C3CC3)ccc2[nH]1)N(CCO)c1cccc(Cl)c1Cl` (racemic) [Compound 162] stands not below 1000 nM; under `CC1(C)OCC(CN(C(=O)c2nc3cc(C(F)(F)F)ccc3[nH]2)c2cccc(Cl)c2Cl)O1` (racemic) [Compound 173, N-(2,3-dichlorophenyl)-N-((2,2-dimethyl-1,3-dioxolan-4-yl)methyl)-5-(trifluoromethyl)-1H-benzo[d]imidazole-2-carboxamide], not above 100 nM; under `CC(c1cn[nH]c1)c1ccc2[nH]c(C(=O)N(CCO)c3cccc(Cl)c3Cl)nc2c1` (racemic) [Compound 189], not above 100 nM.

As to `O=C(c1nc2cc(Cl)cc(F)c2[nH]1)N(c1cccc(F)c1Cl)C1CCS(=O)(=O)C1` (racemic) [Compound 191], the IC50 was not above 100 nM. Under `O=C(c1nc2cc(C(F)(F)F)cc(F)c2[nH]1)N(c1cccc(F)c1Cl)C1CCS(=O)(=O)C1` (racemic) [Compound 192] stands not above 100 nM; under `O=C(c1nc2cc(C3CCCO3)ccc2[nH]1)N(CCO)c1cccc(Cl)c1Cl` (racemic) [Compound 196], not above 100 nM; under `O=C(c1nc2cc(C(F)(F)F)ccc2[nH]1)N(c1cccc(F)c1Cl)C1CCS(=O)(=O)C1` (racemic) [Compound 228, N-(2-chloro-3-fluorophenyl)-N-(1,1-dioxidotetrahydrothiophen-3-yl)-5-(trifluoromethyl)-1H-benzo[d]imidazole-2-carboxamide], not above 100 nM. For the compound `C[S+]([O-])CCCN(C(=O)c1nc2cc(C(F)(F)F)ccc2[nH]1)c1cccc(F)c1Cl` (racemic) [Compound 230, N-(2-chloro-3-fluorophenyl)-N-(3-(methylsulfinyl)propyl)-5-(trifluoromethyl)-1H-benzo[d]imidazole-2-carboxamide], the IC50 was not above 100 nM.

Take `O=C1NC(CN(C(=O)c2nc3cc(C(F)(F)F)ccc3[nH]2)c2cccc(F)c2Cl)CO1` (racemic) [Compound 238, N-(2-chloro-3-fluorophenyl)-N-((2-oxooxazolidin-4-yl)methyl)-5-(trifluoromethyl)-1H-benzo[d]imidazole-2-carboxamide]: the IC50 was not above 100 nM. The figure for `CN1CCC(N(C(=O)c2nc3cc(C(F)(F)F)ccc3[nH]2)c2cccc(F)c2Cl)C1=O` (racemic) [Compound 240, N-(2-chloro-3-fluorophenyl)-N-(1-methyl-2-oxopyrrolidin-3-yl)-5-(trifluoromethyl)-1H-benzo[d]imidazole-2-carboxamide] is not above 100 nM. Under `Cc1ccc2[nH]c(C(=O)N(C)c3cccc(Cl)c3Cl)c(CO)c2c1` [Compound 1, N-(2,3-dichlorophenyl)-3-(hydroxymethyl)-N,5-dimethyl-1H-indole-2-carboxamide] stands not above 100 nM; under `Cc1ccc2[nH]c(C(=O)N(C)c3c(F)cccc3F)c(CO)c2c1` [Compound 2, N-(2,6-difluorophenyl)-3-(hydroxymethyl)-N,5-dimethyl-1H-indole-2-carboxamide], 501 to 1000 nM. Take `Cc1ccc2[nH]c(C(=O)N(C)c3ccc(C#N)cc3)c(CO)c2c1` [Compound 3, N-(4-cyanophenyl)-3-(hydroxymethyl)-N,5-dimethyl-1H-indole-2-carboxamide]: the IC50 is not below 1000 nM. Under `Cc1ccc2[nH]c(C(=O)N(C)c3ccccn3)c(CO)c2c1` [Compound 4, 3-(hydroxymethyl)-N,5-dimethyl-N-(pyridin-2-yl)-1H-indole-2-carboxamide] stands not below 1000 nM. Under `Cc1ccc2[nH]c(C(=O)N(C)c3c(Cl)cccc3Cl)c(CO)c2c1` [Compound 5, N-(2,6-dichlorophenyl)-3-(hydroxymethyl)-N,5-dimethyl-1H-indole-2-carboxamide] stands 101 to 500 nM; under `Cc1ccc2[nH]c(C(=O)N(C)c3ccccc3Cl)c(CO)c2c1` [Compound 6, N-(2-chlorophenyl)-3-(hydroxymethyl)-N,5-dimethyl-1H-indole-2-carboxamide], 101 to 500 nM. In the case of `Cc1ccc2[nH]c(C(=O)N(C)c3ccccc3C#N)c(CO)c2c1` [Compound 7, N-(2-cyanophenyl)-3-(hydroxymethyl)-N,5-dimethyl-1H-indole-2-carboxamide], the IC50 was not below 1000 nM. Under `Cc1ccc2[nH]c(C(=O)N(C)c3cccc(C#N)c3)c(CO)c2c1` [Compound 8, N-(3-cyanophenyl)-3-(hydroxymethyl)-N,5-dimethyl-1//-indole-2-carboxamide] stands not below 1000 nM; under `Cc1ccc2[nH]c(C(=O)N(C)c3ccc(C#N)cc3Cl)c(CO)c2c1` [Compound 9, N-(2-chloro-4-cyanophenyl)-3-(hydroxymethyl)-N,5-dimethyl-1H-indole-2-carboxamide], not below 1000 nM. Under `Cc1ccc2[nH]c(C(=O)N(C)c3cccc(C(F)(F)F)c3)c(CO)c2c1` [Compound 10, 3-(hydroxymethyl)-N,5-dimethyl-N-(3-(trifluoromethyl)phenyl)-1H-indole-2-carboxamide] stands not below 1000 nM.

In the case of `Cc1ccc2[nH]c(C(=O)N(C)c3ccc(Cl)c(C(F)(F)F)c3)c(CO)c2c1` [Compound 11, N-(4-chloro-3-(trifluoromethyl)phenyl)-3-(hydroxymethyl)-N,5-dimethyl-1H-indole-2-carboxamide], the IC50 was not below 1000 nM. The figure for `Cc1ccc2[nH]c(C(=O)N(C)c3ccc(Cl)c(Cl)c3)c(CO)c2c1` [Compound 12] is not below 1000 nM; for `COc1ccccc1N(C)C(=O)c1[nH]c2ccc(C)cc2c1CO` [Compound 13, 3-(hydroxymethyl)-N-(2-methoxyphenyl)-N,5-dimethyl-1H-indole-2-carboxamide] it is not below 1000 nM; for `Cc1ccc2[nH]c(C(=O)N(C)C3CCCC3)c(CC(N)=O)c2c1` [Compound 16, 3-(2-amino-2-oxoethyl)-N-cyclopentyl-N,5-dimethyl-1H-indole-2-carboxamide] it is 501 to 1000 nM. Under `Cc1ccc2c(CO)c(C(=O)N(C)C3CCCC3)[nH]c2c1` [Compound 17, N-cyclopentyl-3-(hydroxymethyl)-N,6-dimethyl-1H-indole-2-carboxamide] stands not below 1000 nM. As to `Cc1ccc2c(c1)c(CO)c(C(=O)N(C)C1C(C)CCC1C)n2C` (stereo not shown) [Compound 18, N-(2,5-dimethylcyclopentyl)-3-(hydroxymethyl)-N,1,5-trimethyl-1H-indole-2-carboxamide], the IC50 was not below 1000 nM. On to `Cc1ccc2[nH]c(C(=O)N(C)c3cc(F)cc(F)c3)c(CO)c2c1` [Compound 19, N-(3,5-difluorophenyl)-3-(hydroxymethyl)-N,5-dimethyl-1H-indole-2-carboxamide], for which the IC50 is not below 1000 nM.

With `O=C(c1nc2cc(C(F)(F)F)ccc2[nH]1)N(CCO)c1cnccc1C(F)(F)F` [Compound 20, N-(2-hydroxyethyl)-5-(trifluoromethyl)-N-(4-(trifluoromethyl)pyridin-3-yl)-1H-benzo[d]imidazole-2-carboxamide], the IC50 was not above 100 nM. In the case of `Cc1cccc2[nH]c(C(=O)N(C)C3CCCC3)c(CO)c12` [Compound 21, N-cyclopenty1-3-(hydroxymethyl)-N,4-dimethyl-1H-indole-2-carboxamide], the IC50 is not below 1000 nM. `Cc1ccc2[nH]c(C(=O)N(C)c3cccnc3)c(CO)c2c1` [Compound 22, 3-(hydroxymethyl)-N,5-dimethyl-N-(pyridin-3-yl)-1H-indole-2-carboxamide]: the IC50 was not below 1000 nM. Under `Cc1ccc2c(CO)c(C(=O)N(C)C3CCCC3)n(CC(N)=O)c2c1` [Compound 23, 1-(2-amino-2-oxoethyl)-N-cyclopentyl-3-(hydroxymethyl)-N,6-dimethyl-1H-indole-2-carboxamide] stands not below 1000 nM; under `Cc1ccc2[nH]c(C(=O)N(C)c3cccc(Cl)c3)c(CO)c2c1` [Compound 24, N-(3-chlorophenyl)-3-(hydroxymethyl)-N,5-dimethyl-1H-indole-2-carboxamide], not below 1000 nM.

The term IC50 denotes the point on the concentration scale where inhibition reaches its midpoint.

The values are drawn from US20260265195A1, “SARM1 MODULATORS, PREPARATIONS, AND USES THEREOF” (SIRONAX LTD, priority 2022, published 2026).
